These results are taken from patent US4771057A, “Reduced pyridyl derivatives with cardiovascular regulating properties” (University of Alberta, priority 1986, dated 1988).

Where two headings read alike, the source gives them in different places.

In this assay the target is guinea pig ileal longitudinal smooth muscle. In words: Calcium channel antagonist testing: inhibition of muscarinic receptor-mediated Ca2+-dependent contraction (response to CD) of guinea pig ileal longitudinal smooth muscle. In kind it is cell-based. The settings on record: for IC50: 50% inhibition of tonic contraction to CD 5×10^-7 M, compound added 10 min before CD, 37° C., pH 7.4, read-out: Calcium channel antagonist act., inhib. act. on contractile response to CD, ID50; for calcium channel antagonist activity, comparison to Nifedipine (TM): conclusion from Table 7. Here is the method:
Male albino guinea pigs (body weight 300-450 g) were sacrificed by decapitation. The intestine was removed above the ileo-caecal junction. Longitudinal smooth muscle segments of 2 cm length were mounted under a resting tension of 300-400 mg. […] The muscles were equilibrated for 1 h with a solution change every 15 min. Two successive control contractions were elicited at 15 min intervals with 5×10^-7 M cis-2-methyl- 4-dimethylaminomethyl-1,3-dioxolane methiodide (CD). The isometric contractions were recorded with a force displacement transducer (FT 03C) on a GRASS physiograph. The means of the two contractile responses was taken as the 100% value for the tonic (slow) component of the response. The muscle was washed with Hepes saline solution and was allowed to re-equilibrate. The calcium antagonist (test compound) was added ten min before the dose-response for CD was determined. The drug-induced inhibition of contraction was expressed as percent of control. The ID50 values were graphically determined from the concentration-response curves.

For “3,5-Dicyano-2,6-dimethyl-4-{3'-[N--methoxycarbonyl-1',2'-(1',6'-)dihydropyridyl]}-1,4-dihydropyridine [Compound D-48]”, the IC50 is 34000 nM.

Regarding “3-Isobutyl-5-methyl 2,6-dimethyl-4-{3'-[N--methoxycarbonyl-1',2'-(1',6'-)dihydropyridyl]}-1,4-dihydropyridine-3,5-dicarboxylate [Compound D-43]”, the IC50 is 31 nM and the “calcium channel antagonist activity, comparison to Nifedipine (TM)” value (from here on “calcium channel antagonist activity”) is reported as “active calcium channel antagonists, being comparable to Nifedipine (TM)”.

Take “3-Isobutyl-5-methyl 2,6-dimethyl-4-{3'-[N--phenoxycarbonyl-1',2'-(1',6'-)dihydropyridyl]}-1,4-dihydropyridine-3,5-dicarboxylate [Compound D-44]”: the IC50 turned out to be 45 nM and the “calcium channel antagonist activity” value is reported as “active calcium channel antagonists, being comparable to Nifedipine (TM)”.

Regarding “3-Methyl 5-cyano-2,6-dimethyl-4-{3'-[N--methoxycarbonyl-1',2'-(1',6'-)dihydropyridyl]}-1,4-dihydropyridine-3-carboxylate [Compound D-46]”, the IC50 worked out at 52000 nM.

With `COC(=O)C1=C(C)NC(C)=C(C(=O)OC)C1c1ccccn1` [Compound D-1, 3,5-dimethyl 2,6-dimethyl-4-(2'-pyridyl)-1,4-dihydropyridine-3,5-dicarboxylate], for the setting “Cavia porcellus”, the IC50 was determined as 2320 nM.

For `COC(=O)C1=C(C)NC(C)=C(C(=O)OC(C)C)C1c1ccccn1` [Compound D-2, 3-Isopropyl-5-methyl 2,6-dimethyl-4-(2'-pyridyl)-1,4-dihydropyridine-3,5-dicarboxylate], the “calcium channel antagonist activity” value is “active calcium channel antagonists, being comparable to Nifedipine (TM)”. For the setting “Cavia porcellus”, the IC50 amounted to 95.6 nM.

As to `COC(=O)C1=C(C)NC(C)=C(C(=O)OCC(C)C)C1c1ccccn1` [Compound D-3, 3-Isobutyl-5-methyl 2,6-dimethyl-4-(2'-pyridyl)-1,4-dihydropyridine-3,5-dicarboxylate], the “calcium channel antagonist activity” value was “active calcium channel antagonists, being comparable to Nifedipine (TM)”. The IC50 (Cavia porcellus) worked out at 41 nM.

As for `COC(=O)C1=C(C)NC(C)=C(C(=O)OCCN(C)C)C1c1ccccn1` [Compound D-4, 3-[2-(N,N--dimethylamino)ethyl]-5-methyl 2,6-dimethyl-4-(2'-pyridyl)-1,4-dihydropyridine-3,5-dicarboxylate], the IC50 (Cavia porcellus) was determined as 43600 nM.

Regarding `COC(=O)C1=C(C)NC(C)=C(C(=O)OC)C1c1cccnc1` [Compound D-5, 3,5-Dimethyl 2,6-dimethyl-4-(3'-pyridyl)-1,4-dihydropyridine-3,5-dicarboxylate], the IC50 (Cavia porcellus) came out at 3830 nM.

As for `COC(=O)C1=C(C)NC(C)=C(C(=O)OC(C)C)C1c1cccnc1` [Compound D-6, 3-Isopropyl-5-methyl 2,6-dimethyl-4-(3'-pyridyl)-1,4-dihydropyridine-3,5-dicarboxylate], the “calcium channel antagonist activity” value is “active calcium channel antagonists, being comparable to Nifedipine (TM)”. Where the note is “Cavia porcellus”, the IC50 worked out at 97 nM.

Take `COC(=O)C1=C(C)NC(C)=C(C(=O)OCC(C)C)C1c1cccnc1` [Compound D-7, 3-Isobutyl-5-methyl 2,6-dimethyl-4-(3'-pyridyl)-1,4-dihydropyridine-3,5-dicarboxylate]: the “calcium channel antagonist activity” value was “active calcium channel antagonists, being comparable to Nifedipine (TM)”. Further, the IC50 (Cavia porcellus) was determined as 56000 nM.

For the molecule `COC(=O)C1=C(C)NC(C)=C(C(=O)OCCN(C)C)C1c1cccnc1` [Compound D-8, 3-[2-(N,N--dimethylamino)ethyl]-5-methyl 2,6-dimethyl-4-(3'-pyridyl)-1,4-dihydropyridine-3,5-dicarboxylate], the IC50 (Cavia porcellus) was 33400 nM.

In the case of `COC(=O)C1=C(C)NC(C)=C(C(=O)OC)C1c1ccncc1` [Compound D-9, 3,5-Dimethyl 2,6-dimethyl-4-(4'-pyridyl)-1,4-dihydropyridine-3,5-dicarboxylate], for the setting “Cavia porcellus”, the IC50 worked out at 5000 nM.

On to `COC(=O)C1=C(C)NC(C)=C(C(=O)OC(C)C)C1c1ccncc1` [Compound D-10, 3-Isopropyl-5-methyl 2,6-dimethyl-4-(4'-pyridyl)-1,4-dihydropyridine-3,5-dicarboxylate], for which the “calcium channel antagonist activity” value is recorded as “active calcium channel antagonists, being comparable to Nifedipine (TM)”. In addition, where the note is “Cavia porcellus”, the IC50 was 560 nM.

As to `COC(=O)C1=C(C)NC(C)=C(C(=O)OCC(C)C)C1c1ccncc1` [Compound D-11, 3-Isobutyl-5-methyl 2,6-dimethyl-4-(4'-pyridyl)-1,4-dihydropyridine-3,5-dicarboxylate], the “calcium channel antagonist activity” value is listed as “active calcium channel antagonists, being comparable to Nifedipine (TM)”. Moreover, the IC50 (Cavia porcellus) came to 220 nM.

With `COC(=O)C1=C(C)NC(C)=C(C(=O)OCCN(C)C)C1c1ccncc1` [Compound D-12, 3-[2-(N,N--dimethylamino)ethyl] -5-methyl 2,6-dimethyl-4-(4'-pyridyl)-1,4-dihydropyridine-3,5-dicarboxylate], the IC50 (Cavia porcellus) worked out at 51300 nM.

As to `CCOC(=O)C1=C(C)NC(C)=C(C(=O)OCC)C1c1ccccn1` [Compound D-13, 3,5-diethyl 2,6-dimethyl-4-(2'-pyridyl)-1,4-dihydropyridine-3,5-dicarboxylate], the IC50 (Cavia porcellus) worked out at 180 nM.

Regarding `CC1=C(C(=O)OC(C)C)C(c2ccccn2)C(C(=O)OC(C)C)=C(C)N1` [Compound D-14, 3,5-Diisopropyl 2,6-dimethyl-4-(2'-pyridyl)-1,4-dihydropyridine-3,5-dicarboxylate], the “calcium channel antagonist activity” value is on record as “active calcium channel antagonists, being comparable to Nifedipine (TM)”. Further, the IC50 (Cavia porcellus) was found to be 125 nM.

As for `CC1=C(C(=O)OCC(C)C)C(c2ccccn2)C(C(=O)OCC(C)C)=C(C)N1` [Compound D-15, 3,5-Diisobutyl 2,6-dimethyl-4-(2'-pyridyl)-1,4-dihydropyridine-3,5-dicarboxylate], the “calcium channel antagonist activity” value is given as “active calcium channel antagonists, being comparable to Nifedipine (TM)”. Moreover, the IC50 (Cavia porcellus) was determined as 93.6 nM.

Regarding `CCOC(=O)C1=C(C)NC(C)=C(C(=O)OCC)C1c1cccnc1` [Compound D-17, 3,5-Diethyl 2,6-dimethyl-4-(3'-pyridyl)-1,4-dihydropyridine-3,5-dicarboxylate], the “calcium channel antagonist activity” value is reported as “active calcium channel antagonists, being comparable to Nifedipine (TM)”. In addition, the IC50 (Cavia porcellus) amounted to 346 nM.

For `CC1=C(C(=O)OC(C)C)C(c2cccnc2)C(C(=O)OC(C)C)=C(C)N1` [Compound D-18], the “calcium channel antagonist activity” value was “active calcium channel antagonists, being comparable to Nifedipine (TM)”. The IC50 (Cavia porcellus) was found to be 260 nM.

With `CC1=C(C(=O)OCCN(C)C)C(c2cccnc2)C(C(=O)OCCN(C)C)=C(C)N1` [Compound D-20, 3,5-Bis-[2-(N,N--dimethylamino)ethyl]2,6-dimethyl-4-(3'pyridyl)-1,4-dihydropyridine-3,5-dicarboxylate], the IC50 (Cavia porcellus) was determined as 179000 nM.

`CC1=C(C(=O)OC(C)C)C(c2ccncc2)C(C(=O)OC(C)C)=C(C)N1` [Compound D-22, 3,5-Diisopropyl 2,6-dimethyl-4-(4'-pyridyl)-1,4-dihydropyridine-3,5-dicarboxylate]: the “calcium channel antagonist activity” value is listed as “active calcium channel antagonists, being comparable to Nifedipine (TM)”. The IC50 (Cavia porcellus) was 231 nM.

Turning to `CC1=C(C(=O)OCC(C)C)C(c2ccncc2)C(C(=O)OCC(C)C)=C(C)N1` [Compound D-23, 3,5-Diisobutyl 2,6-dimethyl-4-(4'-pyridyl)-1,4-dihydropyridine-3,5-dicarboxylate], the “calcium channel antagonist activity” value is “active calcium channel antagonists, being comparable to Nifedipine (TM)”. Moreover, the IC50 (Cavia porcellus) came out at 580 nM.

As to `COC(=O)C1=C(C)NC(C)=C(C#N)C1c1ccncc1` [Compound D-26], for the setting “Cavia porcellus”, the IC50 is 87700 nM.

Take `CC1=C(C#N)C(c2cccnc2)C(C#N)=C(C)N1` [Compound D-27, 3,5-dicyano-2,6-dimethyl-4-(3'-pyridyl)-1,4-dihydropyridine]: the IC50 (Cavia porcellus) came to 357000 nM.

With `CC1=C(C#N)C(c2ccncc2)C(C#N)=C(C)N1` [Compound D-28, 3,5-dicyano-2,6-dimethyl-4-(4'-pyridyl)-1,4-dihydropyridine], where the note is “Cavia porcellus”, the IC50 is 130000 nM.

As for `CC1=C(C(=O)OCC(C)C)C(C2=CCN(C(=O)Oc3ccccc3)C=C2)C(C(=O)OCC(C)C)=C(C)N1` [Compound D-56, Diisobutyl 2,6-dimethyl-4-[4'-(N--phenoxycarbonyl)]-1,4-di-hydropyridine-3,5-dicarboxylate], the “calcium channel antagonist activity” value is “active calcium channel antagonists, being comparable to Nifedipine (TM)”. The IC50 (Cavia porcellus) is 510 nM.

Take `COC(=O)N1C=CC(C2C(C#N)=C(C)NC(C)=C2C#N)=CC1` [Compound D-59, 3,5-Dicyano-2,6-dimethyl-4-[4'-(N--methoxycarbonyl)]-1,4-dihydropyridine]: the IC50 (Cavia porcellus) is 67500 nM.

Regarding `COC(=O)C1=C(C)NC(C)=C(C(=O)OCC(C)C)C1C1=CCN(C(=O)OC)C=C1` [Compound D-60, 3-Isobutyl-5-methyl 2,6-dimethyl-4-[4'-(N--methoxycarbonyl)]-1,4-dihydropyridine-3,5-dicarboxylate], the IC50 (Cavia porcellus) was determined as 1760 nM.
